Earlier results on one compound are cited in patent US8481600B2, “Formulation of aspirin that is stable and showing minimal hydrolysis for parenteral administration for the treatment of cardiovascular and other disease states” (Academic Pharmaceuticals, Inc., priority 2007, dated 2013).

For series [1] the following is noted: cited from earlier work.
For series [2] the following is noted: cited from earlier work. The source holds these as a separate data set.
The conditions of series [3]: cited from earlier work. The source holds these as a separate data set.

With `CC(=O)Oc1ccccc1C(=O)O` [Lysine acetylsalicylate], the “shortest half life after IV administration” value in series [1] (IV) was 7.5 min. Moreover, the “metabolism and hydrolysis to salicylic acid” value in series [1] (in vivo) is given as “rapid”. Besides, the “treatment of acute migraine headaches” value in series [2] (human, in vivo) is given as “effective”. In addition, the “incidence of sensitivity that can lead to anaphylactic shock” value in series [2] (patients) is “up to 5%”. Moreover, the water solubility entry in series [3] is reported as “readily water soluble”.
